≈ marks a conversion by molar mass, not a printed value. A value given as a limit tells only on which side of the number the result lay.

Data set [1] deals with T1, Platelet-activating factor acetylhydrolase (Homo sapiens, UniProt Q13093).
T1 sequence (Q13093 whole entry): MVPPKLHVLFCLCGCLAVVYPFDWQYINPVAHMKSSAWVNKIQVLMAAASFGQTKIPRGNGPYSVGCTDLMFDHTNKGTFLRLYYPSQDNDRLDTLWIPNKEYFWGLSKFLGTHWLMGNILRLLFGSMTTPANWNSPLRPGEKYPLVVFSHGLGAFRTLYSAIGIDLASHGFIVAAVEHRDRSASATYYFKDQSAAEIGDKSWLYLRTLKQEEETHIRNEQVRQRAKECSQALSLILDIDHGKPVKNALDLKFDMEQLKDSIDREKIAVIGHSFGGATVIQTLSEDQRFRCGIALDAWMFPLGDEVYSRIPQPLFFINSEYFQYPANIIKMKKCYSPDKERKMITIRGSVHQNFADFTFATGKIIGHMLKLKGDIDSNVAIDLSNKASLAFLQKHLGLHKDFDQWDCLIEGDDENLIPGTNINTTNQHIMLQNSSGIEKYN
Description: Inhibition of recombinant human Lp-PLA2 pre-incubated for 30 mins before PED6 fluorogenic substrate

Data set [2] in a line: Volume of distribution at steady state in Beagle dog at 0.5/1 mg/kg, iv or 0.5 mg/kg, po by LC/MS-MS method. The settings on record: in vivo, read-out: Vdss. The format is ADME, organism-based, Canis lupus familiaris.
The nature of data set [3]: Clearance in Beagle dog at 0.5/1 mg/kg, iv or 0.5 mg/kg, po by LC/MS-MS method. It is filed as ADME, organism-based, Canis lupus familiaris. The note with it: in vivo.
Data set [4] is described as follows: Protein binding in rat plasma at 10 uM incubated for 4 hrs by LC/MS-MS based rapid equilibrium dialysis method. The note with it: read-out: PPB (converted). The format is ADME, cell-free.
Data set [5] addresses Cytochrome P450 3A4 (Homo sapiens, UniProt P08684). As to the kind of experiment: Inhibition of CYP3A4 (unknown origin) expressed in Escherichia coli co-expressing human NADPH reductase using both 7-benzyloxyquinolone and diethoxyfluorescein substrate in presence of NADPH regenerating system incubated for 10 mins by spectrofluorometry. It is filed as ADME.
The nature of data set [6]: Lipophilicity, log D of the compound by chromatography. The format is physicochemical.
Data set [7] in a line: Clearance in Han Wistar rat at 1 mg/kg, iv or 3 mg/kg, po administered as bolus dose by LC/MS-MS method. It is filed as ADME, organism-based. The settings on record: in vivo.
Data set [8] in a line: Half life in Han Wistar rat at 1 mg/kg, iv or 3 mg/kg, po administered as bolus dose by LC/MS-MS method. The format is ADME, organism-based. The settings on record: in vivo.
Data set [9] is described as follows: Protein binding in dog plasma at 10 uM incubated for 4 hrs by LC/MS-MS based rapid equilibrium dialysis method. It is filed as ADME, cell-free, Canis lupus familiaris. The settings on record: read-out: PPB (converted).
The nature of data set [10]: Permeability at pH 7.4 by PAMPA method. The format is ADME. The settings on record: read-out: permeability.
The nature of data set [11]: Solubility in pH 7.4 PBS by CLND assay.
Data set [12] is described as follows: Intrinsic clearance rat liver microsomes at 30 ug/mL pre-incubated for 7 mins before NADPH addition by LC/MS-MS method. It is filed as ADME.
The nature of data set [13]: Half life in Beagle dog at 0.5/1 mg/kg, iv or 0.5 mg/kg, po by LC/MS-MS method. The settings on record: in vivo. It is filed as ADME, organism-based, Canis lupus familiaris.
Data set [14] in a line: Solubility of the compound by quantitative NMR method. It is filed as physicochemical.
A short description of data set [15]: Volume of distribution at steady state in Han Wistar rat at 1 mg/kg, iv or 3 mg/kg, po administered as bolus dose by LC/MS-MS method. The format is ADME, organism-based. The note with it: in vivo, read-out: Vdss.
In data set [16] the target is T1, Platelet-activating factor acetylhydrolase. This is another data set of the same source.
Description: Inhibition of recombinant human Lp-PLA2 incubated for 20 mins by Thio-PAF assay
For data set [17] the target is unchanged. The source holds these as a separate data set.
Description: Inhibition of Lp-PLA2 in whole human plasma pre-incubated for 15 mins before 2-thio-PAF substrate addition
Data set [18] in a line: Oral bioavailability in Beagle dog at 0.5 mg/kg by LC/MS-MS method. The format is ADME, organism-based, Canis lupus familiaris. The settings on record: in vivo.
The nature of data set [19]: Oral bioavailability in Han Wistar rat at 3 mg/kg administered as bolus dose by LC/MS-MS method. The settings on record: in vivo. The format is ADME, organism-based.
Data set [20] is described as follows: Stability in rat blood assessed as compound remaining level. It is filed as ADME, tissue-based.

Sequence of Cytochrome P450 3A4 (P08684 whole entry): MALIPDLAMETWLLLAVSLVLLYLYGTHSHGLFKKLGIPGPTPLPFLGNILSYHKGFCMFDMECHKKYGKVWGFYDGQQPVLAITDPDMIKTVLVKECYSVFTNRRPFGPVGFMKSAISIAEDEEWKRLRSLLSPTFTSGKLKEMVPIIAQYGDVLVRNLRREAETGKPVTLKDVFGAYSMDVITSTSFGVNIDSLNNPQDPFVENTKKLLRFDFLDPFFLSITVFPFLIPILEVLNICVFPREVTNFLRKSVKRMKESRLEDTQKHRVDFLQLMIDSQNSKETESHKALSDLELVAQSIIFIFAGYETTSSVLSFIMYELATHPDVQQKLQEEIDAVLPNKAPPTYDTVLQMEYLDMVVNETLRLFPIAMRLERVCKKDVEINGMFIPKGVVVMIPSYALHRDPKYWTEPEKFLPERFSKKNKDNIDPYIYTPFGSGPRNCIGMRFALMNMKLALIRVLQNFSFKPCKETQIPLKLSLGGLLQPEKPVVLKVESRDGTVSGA

Turning to `CN1CC(=O)N(CCOc2ccccc2)C1=O`, the IC50 in data set [1] came out at 1000 µM.
Molecule `CC1(C)CN(CCOc2ccc(F)cc2)C(=O)N1` gave an IC50 in [1] of 39 µM.
With `CC1(C)CCC(=O)N(CCOc2ccc(F)cc2)C1`, half-maximal inhibition in [1] (IC50) required 10 µM.
The same measure, in the same setting: the result for `O=C1NC2(CCCCC2)C(=O)N1CCOc1ccc(F)cc1` reads 14 µM.
As to `CC1([C@@H]2CC(=O)N(CCOc3ccc(F)c(C#N)c3)C2)CCS(=O)(=O)CC1`, the Vd came out at 1.3 L/kg in [2] and 1.2 L/kg in data set [15]. The clearance in data set [3] stood at 11 mL/min/kg; in data set [7], 67 mL/min/kg. In addition, the fraction unbound at 4 h, 10 µM is 0.8 in data set [4] and 0.75 in data set [9]. The 50% inhibitory concentration (IC50) in data set [5] was greater than 50 µM. This molecule also registered a chromatographic logD in data set [6] of 3. In addition, the results for the half-life in [8] and in data set [13] were 0.34 h and 1.3 h, respectively. For the same molecule, the Papp in [10] is 3.6 ×10⁻⁶ cm/s. Further, the solubility (kinetic) in data set [11] was greater than 509 µM. Besides, the CLH in data set [12] was 1.1 mL/min/g. This molecule also gave a solubility in data set [14] of 3500 µM (≈ 1380 µg/mL).
In data set [16], `C[C@]1(c2ccccc2)CC(=O)N(CCOc2ccc(F)c(C#N)c2)C1` registered an IC50 of 1 µM.
Regarding `CC(C)[C@@]1(C)CC(=O)N(CCOc2ccc(F)c(C#N)c2)C1`, the concentration for half-maximal inhibition (IC50) came out at 13 µM in data set [17] and 5.4 µM in data set [16].
As to `CN1C(=O)N(CCOc2ccccc2)C(=O)C1(C)C`, the IC50 in data set [1] came to 20 µM.
`CC(C)[C@]1(C)CC(=O)N(CCOc2ccc(F)c(C#N)c2)C1`: the results for the half-inhibitory concentration (IC50) in data set [17] and in [16] were 6.2 µM and 2.3 µM, respectively.
Regarding `CN1CCC(C)([C@H]2CC(=O)N(CCOc3ccc(F)c(C#N)c3)C2)CC1`, the chromatographic logD in data set [6] stood at 1.7.
Turning to `CC1([C@@H]2CC(=O)N(CCOc3ccc(F)c(F)c3)C2)CCS(=O)(=O)CC1`, the fraction unbound at 4 h, 10 µM in data set [4] is 0.7. Besides, the concentration for half-maximal inhibition (IC50) in data set [5] is greater than 50 µM; in data set [17], 0.1 µM; in data set [1], 0.086 µM. Moreover, in [6], the chromatographic logD turned out to be 3.4. Also, the Papp in data set [10] was 17 ×10⁻⁶ cm/s. Further, the solubility (kinetic) in data set [11] is greater than 450 µM.
As for `CC1(C)CC(=O)N(CCOc2ccc(F)cc2)C1`, inhibition in data set [1] was half-maximal at 11 µM (IC50).
Molecule `CC1([C@H]2CC(=O)N(CCOc3ccc(F)c(C#N)c3)C2)CCS(=O)(=O)CC1` showed a chromatographic logD in [6] of 2.8.
Take `CC1(C)CC(=O)N(CCOc2ccc(F)c(C#N)c2)C1`: the 50% inhibitory concentration (IC50) is 15 µM in data set [16] and 3 µM in data set [1].
In data set [16], `C[C@@]1(c2ccccc2)CC(=O)N(CCOc2ccc(F)c(C#N)c2)C1` registered an IC50 of 1.6 µM.
With `CN1CCC(C)(C2CC(=O)N(CCOc3ccc(F)c(C#N)c3)C2)CC1.Cl` (racemic), the Vd came out at 2.5 L/kg in data set [2] and 3.2 L/kg in data set [15]. Also, the clearance in data set [3] was 8.6 mL/min/kg; in data set [7] it was 24 mL/min/kg. Also, the figures for the bioavailability in [18] and in data set [19] were 76% and 52%, respectively. Besides, the half-life in data set [8] is 1.8 h; in [13], 3.2 h.
`CN1CCC(C)(C2CC(=O)N(CCOc3ccc(F)c(C#N)c3)C2)CC1` (racemic): the fraction unbound at 4 h, 10 µM is 0.71 in data set [4] and 0.56 in data set [9]. Also, the IC50 in [5] is greater than 50 µM. In addition, in data set [10], the Papp came to 21 ×10⁻⁶ cm/s. The molecule further came in with a solubility (kinetic) in data set [11] greater than 396 µM.
In data set [16], `N#Cc1cc(OCCN2CC(c3ccccc3)CC2=O)ccc1F` (racemic) displayed a concentration for half-maximal inhibition (IC50) of 0.86 µM.
In the case of `CC1(C2CC(=O)N(CCOc3ccc(F)cc3)C2)CCS(=O)(=O)CC1` (racemic), the chromatographic logD in data set [6] is 3.1. Moreover, the IC50 in data set [17] turned out to be 1.5 µM; in [1], 0.76 µM.
In [6], `CC1(C2CC(=O)N(CCOc3ccc(F)c(F)c3)C2)CCS(=O)(=O)CC1` (racemic) gave a chromatographic logD of 3.4. Further, the clearance in data set [7] was determined as 22 mL/min/kg. This molecule gave a half-life in data set [8] of 0.35 h. Further, the IC50 in data set [17] is 0.29 µM; in data set [1], 0.16 µM. The same molecule displayed a bioavailability in [19] of 47%. Also, the Vd in data set [15] came to 0.63 L/kg.
Molecule `CC(C)C1CC(=O)N(CCOc2ccc(F)c(C#N)c2)C1` (racemic) had an IC50 in [16] of 1.9 µM.
Same read-out and setting: as for `CC(C)C1(C)CC(=O)N(CCOc2ccc(F)c(C#N)c2)C1` (racemic), the figure is 2 µM.
As to `CC(=O)N1CCC(C)(C2CC(=O)N(CCOc3ccc(F)c(C#N)c3)C2)CC1` (racemic), the chromatographic logD in data set [6] is 2.9. The IC50 in [17] stood at 0.66 µM; in data set [1] it was 0.25 µM.
The like results for `CC1(C2CC(=O)N(CCOc3ccc(F)c(C#N)c3)C2)CCOCC1` (racemic) were, in that order, 3.7, 0.26 µM and 0.16 µM.
Consider `CC(C)(C)C1CC(=O)N(CCOc2ccc(F)c(C#N)c2)C1` (racemic), for which the IC50 in data set [17] was 5.1 µM; in [16] it was 0.98 µM.
For the molecule `CC1(C2CC(=O)N(CCOc3ccc(F)c(C#N)c3)C2)CCS(=O)(=O)CC1` (racemic), the chromatographic logD in data set [6] turned out to be 2.8. In [20], the Stability amounted to 100%.
In data set [6], `CC1(C2CC(=O)N(CCOc3ccc(F)c(C#N)c3)C2)CCNCC1` (racemic; form 1) returned a chromatographic logD of 1.5.
For `CC1(C2CC(=O)N(CCOc3ccc(F)c(C#N)c3)C2)CCNCC1.Cl` (racemic; form 2), in data set [4], the fraction unbound at 4 h, 10 µM was 0.81. Moreover, the half-inhibitory concentration (IC50) in [5] was greater than 50 µM. The molecule also displayed a pH-dependent lipophilicity (logD) in data set [6] of 1.5. The clearance in [7] was determined as 15 mL/min/kg. In [8], this molecule showed a half-life of 2.4 h. Also, in data set [10], the Papp was less than 0.3 ×10⁻⁶ cm/s. Also, the kinetic solubility in data set [11] came to 242 µM. The molecule further registered a bioavailability in data set [19] of less than 5%. In addition, in data set [15], the Vd came out at 2 L/kg.
In [6], `CCN(CC)CCN(Cc1ccc(-c2ccc(C(F)(F)F)cc2)cc1)C(=O)Cn1c(SCc2ccc(F)cc2)nc(=O)c2c1CCC2` [DARAPLADIB] yielded a chromatographic logD of 6.3. Besides, the solubility (kinetic) in data set [11] worked out at 8 µM (≈ 5.33 µg/mL).

The values above are taken from ChEMBL document CHEMBL3860104, “Fragment-Based Approach to the Development of an Orally Bioavailable Lactam Inhibitor of Lipoprotein-Associated Phospholipase A2 (Lp-PLA2)” (J Med Chem, 2016).
